Data: patent publication US20250152574A1 (BIOGEN MA INC., priority 2022, published 2025)

Target: T1, EBP (Homo sapiens, UniProt Q15125)
T1 construct: HEK293T cells were utilized as the source of EBP enzyme; endogenous in cells; host or cells: HEK293T
Assay: EBP Functional Assay (EBP immunoaffinity LC-MS assay)
Format: biochemical
Details: HEK293T cells as source of EBP enzyme; substrate zymosterol-d5, 37° C. for 4 h; percent conversion to dehydrolathosterol-d5 by LC-APCI MRM MS
Experimental: The EBP immunoaffinity (IA) LC-MS assay measures the potency of small molecule inhibitors of EBP by quantifying their concentration-dependent changes in the enzyme's substrate and product using liquid chromatography atmospheric pressure chemical ionization multiple reaction monitoring mass spectrometry (LC-APCI MRM MS). HEK293T cells were utilized as the source of EBP enzyme. The enzyme was incubated with the small molecule inhibitors at variable concentrations for 30 min. Deuterated form of EBP substrate, zymosterol-d5 (Avanti Polar Lipids, Cat #700068P-1 mg), was then added and the plate was incubated at 37° C. for 4 h. Finally, the sterol isomers were extracted and injected to LC-APCI MRM MS. MRM transition used for the quantification for both zymosterol and […] (substrate and product of EBP enzymatic reaction, respectively) is 372.3-203.2, CE 30 and DP 80 in positive ion mode. Percent conversion of the zymosterol-d5 to dehydrolathosterol-d5 was used to derive IC50 curves. Tasin-1 (1′-[(4-Methoxyphenyl)sulfonyl]-4-methyl-1,4′-bipiperidine, CAS 792927-06-1) was used as the reference small molecule inhibitor.
Percent conversion versus the compound concentration data were fit to the following 4-parameter logistic model to generate IC50 curves: […]

T1 sequence (Q15125 whole entry): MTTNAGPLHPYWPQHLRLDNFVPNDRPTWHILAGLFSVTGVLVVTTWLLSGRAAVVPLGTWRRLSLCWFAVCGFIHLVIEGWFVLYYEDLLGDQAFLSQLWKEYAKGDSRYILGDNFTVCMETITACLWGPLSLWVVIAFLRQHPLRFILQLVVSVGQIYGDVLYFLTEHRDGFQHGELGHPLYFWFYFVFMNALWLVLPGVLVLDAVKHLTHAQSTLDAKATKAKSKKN

Compound	IC50
Cc1cc(S(=O)(=O)N2CCC3(CC2)CC(N2CC4(COC4)C2)C3)n(C)n1 [Example 92, 6-(7-((1,3-dimethyl-1H-pyrazol-5-yl)sulfonyl)-7-azaspiro[3.5]nonan-2-yl)-2-oxa-6-azaspiro[3.3]heptane]	100 to 250 nM
Cc1ccc(S(=O)(=O)N2CCC3(CC2)CC(N2CC(O)C2)CO3)c(Cl)c1 (stereo not shown) [Example 52, 1-(8-((2-Chloro-4-methylphenyl)sulfonyl)-1-oxa-8-azaspiro[4.5]decan-3-yl)azetidin-3-ol]	100 to 250 nM
COc1ncc(C)cc1S(=O)(=O)N1CCC2(CCC(NC3(C)COC3)C2)CC1 (stereo not shown) [Example 41]	100 to 250 nM
COc1ccc(S(=O)(=O)N2CCC3(CCC(N4CC5(COC5)C4)C3)CC2)cc1F (stereo not shown) [Example 10]	100 to 250 nM
COCCN(C)C1CC2(CCN(S(=O)(=O)c3cc(C)nn3C)CC2)C1 [Example 91, 7-((1,3-dimethyl-1H-pyrazol-5-yl)sulfonyl)-N-(2-methoxyethyl)-N-methyl-7-azaspiro[3.5]nonan-2-amine]	250 to 1500 nM
COc1ncc(Cl)cc1S(=O)(=O)N1CCC2(CC1)C[C@@H](N1CC3(COC3)C1)CO2 (single isomer, unassigned) [Example 63a]	< 100 nM
COc1ncc(Cl)cc1S(=O)(=O)N1CCC2(CC1)CC(N1CC3(COC3)C1)CO2 (stereo not shown) [Example 62, 8-((5-Chloro-2-methoxypyridin-3-yl)sulfonyl)-3-(2-oxa-6-azaspiro[3.3]heptan-6-yl)-1-oxa-8-azaspiro[4.5]decane]	250 to 1500 nM
COCCN(C)C1COC2(CCN(S(=O)(=O)c3cc(C)cnc3OC)CC2)C1 (stereo not shown) [Example 67, 8-((2-Methoxy-5-methylpyridin-3-yl)sulfonyl)-N-(2-methoxyethyl)-N-methyl-1-oxa-8-azaspiro[4.5]decan-3-amine]	250 to 1500 nM
Cn1nc(C2CC2)cc1S(=O)(=O)N1CCC2(CC1)C[C@H](N1CC3(COC3)C1)CO2 (single isomer, unassigned) [Example 57b]	250 to 1500 nM
Cc1cc(C(F)(F)F)ccc1S(=O)(=O)N1CCC2(CC1)CC(N1CCOCC1)CO2 (stereo not shown) [Example 17, 8-((2-Methyl-4-(trifluoromethyl)phenyl)sulfonyl)-3-morpholino-1-oxa-8-azaspiro[4.5]decane]	250 to 1500 nM
N#Cc1cc(F)cc(S(=O)(=O)N2CCC3(CCC(N4CC5(COC5)C4)C3)CC2)c1 (stereo not shown) [Example 13]	100 to 250 nM
COC1CN(C2COC3(CCN(S(=O)(=O)c4cnc(C5CC5)s4)CC3)C2)C1 (stereo not shown) [Example 55, 8-((2-Cyclopropylthiazol-5-yl)sulfonyl)-3-(3-methoxyazetidin-1-yl)-1-oxa-8-azaspiro[4.5]decane]	250 to 1500 nM
N#Cc1cc(F)cc(S(=O)(=O)N2CCC3(CC[C@H](N4CC5(COC5)C4)C3)CC2)c1 (single isomer, unassigned) [Example 85b]	< 100 nM
[2H]C([2H])([2H])N(CCOC)C1COC2(CCN(S(=O)(=O)c3cc(C)cnc3OC)CC2)C1 (stereo not shown) [Example 66, 8-((2-Methoxy-5-methylpyridin-3-yl)sulfonyl)-N-(2-methoxyethyl)-N-(methyl-d3)-1-oxa-8-azaspiro[4.5]decan-3-amine]	250 to 1500 nM
Cn1nc2c(c1S(=O)(=O)N1CCC3(CCC(N4CCOCC4)C3)CC1)COCC2 (stereo not shown) [Example 24, 2-Methyl-3-((2-morpholino-8-azaspiro[4.5]decan-8-yl)sulfonyl)-2,4,6,7-tetrahydropyrano[4,3-c]pyrazole]	250 to 1500 nM
COCCN(C)C1CCC2(CCN(S(=O)(=O)c3cc(C)cnc3OC)CC2)C1 (stereo not shown) [Example 40]	100 to 250 nM
Cc1ccc(S(=O)(=O)N2CCC3(CC2)CC(N2CC(C)(O)C2)CO3)c(Cl)c1 (stereo not shown) [Example 50, 1-(8-((2-Chloro-4-methylphenyl)sulfonyl)-1-oxa-8-azaspiro[4.5]decan-3-yl)-3-methylazetidin-3-ol]	100 to 250 nM
Cc1cc(OC(F)(F)F)ccc1S(=O)(=O)N1CCC2(CC1)CC(N1CCOCC1)CO2 (stereo not shown) [Example 54, 8-((2-Methyl-4-(trifluoromethoxy)phenyl)sulfonyl)-3-morpholino-1-oxa-8-azaspiro[4.5]decane]	250 to 1500 nM
COc1ncc(Cl)cc1S(=O)(=O)N1CCC2(CC1)CC(N1CC(OC)C1)CO2 (stereo not shown) [Example 61, 8-((5-Chloro-2-methoxypyridin-3-yl)sulfonyl)-3-(3-methoxyazetidin-1-yl)-1-oxa-8-azaspiro[4.5]decane]	250 to 1500 nM

Continued, values first:

IC50	Compound
< 100 nM	COc1ccc(S(=O)(=O)N2CCC3(CCC(N4CC(O)C4)C3)CC2)c(C)n1 (stereo not shown) [Example 99, 1-(8-((6-methoxy-2-methylpyridin-3-yl)sulfonyl)-8-azaspiro[4.5]decan-2-yl)azetidin-3-ol]
250 to 1500 nM	COc1cc(S(=O)(=O)N2CCC3(CC2)CC(N2CC4(COC4)C2)CO3)c(F)cn1 (stereo not shown) [Example 115]
< 100 nM	Cc1nc(C(F)(F)F)ccc1S(=O)(=O)N1CCC2(CC1)CC(N1CC(O)C1)C2 [Example 95, 1-(7-((2-methyl-6-(trifluoromethyl)pyridin-3-yl)sulfonyl)-7-azaspiro[3.5]nonan-2-yl)azetidin-3-ol]
250 to 1500 nM	O=S(=O)(c1ccc(OC(F)(F)F)cn1)N1CCC2(CCC(N3CC4(COC4)C3)C2)CC1 (stereo not shown) [Example 114]
< 100 nM	Cc1nc(Cl)ccc1S(=O)(=O)N1CCC2(CC1)CC(N1C[C@H]3C[C@@H]1CO3)C2 [Example 94, (1R,4R)-5-(7-((6-chloro-2-methylpyridin-3-yl)sulfonyl)-7-azaspiro[3.5]nonan-2-yl)-2-oxa-5-azabicyclo[2.2.1]heptane]
100 to 250 nM	Cc1cc(S(=O)(=O)N2CCC3(CCC(N4CC5(COC5)C4)C3)CC2)n(C)n1 (stereo not shown) [Example 142, 6-(8-((1,3-dimethyl-1H-pyrazol-5-yl)sulfonyl)-8-azaspiro[4.5]decan-2-yl)-2-oxa-6-azaspiro[3.3]heptane]
< 100 nM	COc1ccc(S(=O)(=O)N2CCC3(CCC(N4CC5(COC5)C4)C3)CC2)c(F)c1 (stereo not shown) [Example 129, 6-(8-((2-fluoro-4-methoxyphenyl)sulfonyl)-8-azaspiro[4.5]decan-2-yl)-2-oxa-6-azaspiro[3.3]heptane]
< 100 nM	O=S(=O)(c1coc(C(F)(F)F)c1)N1CCC2(CCC(N3CC4(COC4)C3)C2)CC1 (stereo not shown) [Example 101, 6-(8-((5-(trifluoromethyl)furan-3-yl)sulfonyl)-8-azaspiro[4.5]decan-2-yl)-2-oxa-6-azaspiro[3.3]heptane]
100 to 250 nM	COc1ccc(S(=O)(=O)N2CCC3(CC2)CC(N(C)C2CC4(COC4)C2)CO3)c(F)c1 (stereo not shown) [Example 136, 8-((2-fluoro-4-methoxyphenyl)sulfonyl)-N-methyl-N-(2-oxaspiro[3.3]heptan-6-yl)-1-oxa-8-azaspiro[4.5]decan-3-amine]
250 to 1500 nM	COCCNC1COC2(CCN(S(=O)(=O)c3ccc(C)cc3C)CC2)C1 (stereo not shown) [Example 116, 8-((2,4-dimethylphenyl)sulfonyl)-N-(2-methoxyethyl)-1-oxa-8-azaspiro[4.5]decan-3-amine]
100 to 250 nM	COc1ccc(S(=O)(=O)N2CCC3(CCC(N4CC5(COC5)C4)C3)CC2)cn1 (stereo not shown) [Example 110]
100 to 250 nM	O=S(=O)(c1cc(F)cc(F)c1)N1CCC2(CC1)CC(N1CC3(COC3)C1)CO2 (racemic) [Example 118, rac-8-((3,5-difluorophenyl)sulfonyl)-3-(2-oxa-6-azaspiro[3.3]heptan-6-yl)-1-oxa-8-azaspiro[4.5]decane]
